# Results as given in ChEMBL document CHEMBL4699433, “Rational design, synthesis and testing of novel tricyclic topoisomerase inhibitors for the treatment of bacterial infections part 2” (RSC Med Chem, 2020).
# What was measured:
# Streptococcus pneumoniae = assay: Antibacterial activity against Streptococcus pneumoniae ATCC 49619 assessed as reduction in bacterial growth by CLSI based broth microdilution method; assay type: functional
# Escherichia coli = assay: Antibacterial activity against Escherichia coli ATCC 25922 assessed as reduction in bacterial growth by CLSI based broth microdilution method; assay type: functional
# Staphylococcus aureus [1] = assay: Antibacterial activity against wild type methicillin-sensitive Staphylococcus aureus ATCC 29213 assessed as reduction in bacterial growth by CLSI based broth microdilution method; assay type: functional
# [2] = Thermodynamic solubility of the compound; assay type: physicochemical; settings: read-out: Therm_solubility
# Haemophilus influenzae = assay: Antibacterial activity against Haemophilus influenzae ATCC 49247 assessed as reduction in bacterial growth by CLSI based broth microdilution method; assay type: functional
# [3] = target: Voltage-gated inwardly rectifying potassium channel KCNH2 (Homo sapiens, UniProt Q12809); assay: Inhibition of human ERG by patch clamp assay
# Chain of Voltage-gated inwardly rectifying potassium channel KCNH2 (Q12809 whole entry): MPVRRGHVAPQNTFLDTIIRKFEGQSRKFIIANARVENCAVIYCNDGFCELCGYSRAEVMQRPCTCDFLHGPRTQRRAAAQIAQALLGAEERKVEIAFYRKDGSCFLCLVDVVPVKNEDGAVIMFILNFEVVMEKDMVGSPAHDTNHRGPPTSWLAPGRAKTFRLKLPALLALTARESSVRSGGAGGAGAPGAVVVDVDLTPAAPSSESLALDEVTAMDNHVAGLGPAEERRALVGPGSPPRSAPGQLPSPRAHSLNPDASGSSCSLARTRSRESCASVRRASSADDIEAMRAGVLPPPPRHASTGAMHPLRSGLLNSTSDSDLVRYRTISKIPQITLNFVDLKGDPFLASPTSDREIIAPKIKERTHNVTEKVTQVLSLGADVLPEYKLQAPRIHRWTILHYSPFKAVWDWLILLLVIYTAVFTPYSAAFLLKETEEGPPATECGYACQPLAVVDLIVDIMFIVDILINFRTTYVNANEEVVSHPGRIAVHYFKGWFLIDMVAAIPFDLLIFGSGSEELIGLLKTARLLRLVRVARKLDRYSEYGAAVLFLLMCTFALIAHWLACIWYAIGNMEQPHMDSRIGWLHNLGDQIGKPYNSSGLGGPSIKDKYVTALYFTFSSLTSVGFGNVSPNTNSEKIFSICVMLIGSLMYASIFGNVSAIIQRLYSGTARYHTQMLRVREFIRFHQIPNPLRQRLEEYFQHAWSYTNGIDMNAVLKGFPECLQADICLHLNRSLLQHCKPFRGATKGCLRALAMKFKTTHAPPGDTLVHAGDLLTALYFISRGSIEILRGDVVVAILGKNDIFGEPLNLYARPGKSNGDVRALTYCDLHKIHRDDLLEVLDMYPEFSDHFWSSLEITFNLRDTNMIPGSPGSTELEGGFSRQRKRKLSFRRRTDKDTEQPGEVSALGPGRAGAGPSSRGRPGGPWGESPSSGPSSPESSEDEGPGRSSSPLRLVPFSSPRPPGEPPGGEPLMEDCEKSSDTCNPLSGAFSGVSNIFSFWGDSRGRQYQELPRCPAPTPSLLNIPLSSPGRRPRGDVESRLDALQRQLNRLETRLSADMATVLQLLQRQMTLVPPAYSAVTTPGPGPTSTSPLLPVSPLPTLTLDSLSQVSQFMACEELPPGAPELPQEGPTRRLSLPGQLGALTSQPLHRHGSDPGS
# Staphylococcus aureus [4] = assay: Antibacterial activity against AMG-, QAC-, TMP- resistant methicillin- resistant Staphylococcus aureus NRS106 assessed as reduction in bacterial growth by CLSI based broth microdilution method; assay type: functional
# Staphylococcus aureus [5] = assay: Antibacterial activity against FQ-resistant, methicillin-resistant Staphylococcus aureus NRS482 assessed as reduction in bacterial growth by CLSI based broth microdilution method; assay type: functional
# [6] = Intrinsic clearance in human hepatocytes assessed per 10^6 cells; assay type: ADME, cell-based, Hepatocyte; settings: read-out: CLH
# Staphylococcus aureus [7] = assay: Antibacterial activity against COL-resistant, methicillin-resistant Staphylococcus aureus NRS100 assessed as reduction in bacterial growth by CLSI based broth microdilution method; assay type: functional
# [8] = Protein binding in human plasma assessed as free fraction; assay type: ADME, cell-free
# Enterococcus faecium [9] = assay: Antibacterial activity against VAN-resistant Enterococcus faecium ATCC 700221 assessed as reduction in bacterial growth by CLSI based broth microdilution method; assay type: functional
# Staphylococcus aureus [10] = assay: Antibacterial activity against CA-MRSA ERY-, TET-resistant, FQ Int resistant (USA300 LAC) Staphylococcus aureus NRS384 assessed as reduction in bacterial growth by CLSI based broth microdilution method; assay type: functional
# [11] = target: Sodium channel protein type 5 subunit alpha (Homo sapiens, UniProt Q14524); assay: Inhibition of Nav1.5 (unknown origin) by patch clamp assay
# [12] = Kinetic solubility of compound at pH 7.4; assay type: physicochemical; settings: buffer, read-out: Kinetic_solubility
# Staphylococcus aureus [13] = assay: Antibacterial activity against Staphylococcus aureus ATCC 43300 assessed as reduction in bacterial growth by CLSI based broth microdilution method; assay type: functional
# [14] = system: Staphylococcus epidermidis; assay: Antibacterial activity against wild type Staphylococcus epidermidis ATCC 12228 assessed as reduction in bacterial growth by CLSI based broth microdilution method; assay type: functional
# Cytochrome P450 2D6 = Cytochrome P450 2D6 (Homo sapiens, UniProt P10635); assay: Inhibition of CYP2D6 (unknown origin); assay type: ADME
# Chain of Cytochrome P450 2D6 (P10635 whole entry): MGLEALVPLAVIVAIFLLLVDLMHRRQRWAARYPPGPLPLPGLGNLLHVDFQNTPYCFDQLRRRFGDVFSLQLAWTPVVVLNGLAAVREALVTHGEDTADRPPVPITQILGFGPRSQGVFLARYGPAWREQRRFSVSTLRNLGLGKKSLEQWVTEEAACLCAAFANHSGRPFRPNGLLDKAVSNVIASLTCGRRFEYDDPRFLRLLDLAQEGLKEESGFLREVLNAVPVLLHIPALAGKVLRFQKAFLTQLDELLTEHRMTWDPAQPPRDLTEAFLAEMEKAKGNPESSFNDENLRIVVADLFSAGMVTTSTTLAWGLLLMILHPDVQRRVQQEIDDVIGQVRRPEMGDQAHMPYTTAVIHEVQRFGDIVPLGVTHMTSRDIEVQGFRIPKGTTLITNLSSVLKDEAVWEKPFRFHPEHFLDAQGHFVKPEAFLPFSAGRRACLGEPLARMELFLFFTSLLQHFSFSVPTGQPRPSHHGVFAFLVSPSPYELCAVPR
# [15] = Apparent permeability in human Caco2 cells; assay type: ADME, cell-based; settings: Caco-2
# Enterococcus faecalis = assay: Antibacterial activity against wild type Enterococcus faecalis ATCC 29212 assessed as reduction in bacterial growth by CLSI based broth microdilution method; assay type: functional
# [16] = system: Staphylococcus epidermidis; assay: Antibacterial activity against MRSE AMG-, ERY-resistant Staphylococcus epidermidis NRS101 assessed as reduction in bacterial growth by CLSI based broth microdilution method; assay type: functional
# Enterococcus faecium [17] = assay: Antibacterial activity against wild type Enterococcus faecium ATCC 19434 assessed as reduction in bacterial growth by CLSI based broth microdilution method; assay type: functional
# [18] = Cytotoxicity against human HepG2 cells; assay type: cell-based
# Streptococcus pyogenes = assay: Antibacterial activity against wild type Streptococcus pyogenes ATCC 19615 assessed as reduction in bacterial growth by CLSI based broth microdilution method; assay type: functional
# Staphylococcus aureus [19] = assay: Antibacterial activity against FQ-resistant methicillin-resistant Staphylococcus aureus NRS74 assessed as reduction in bacterial growth by CLSI based broth microdilution method; assay type: functional
# Staphylococcus aureus [20] = assay: Antibacterial activity against LZD-resistant methicillin-resistant Staphylococcus aureus NRS271 assessed as reduction in bacterial growth by CLSI based broth microdilution method; assay type: functional
# [21] = Efflux ratio of permeability in human Caco2 cells; assay type: ADME, cell-based; settings: Caco-2
# Staphylococcus aureus [22] = assay: Antibacterial activity against VAN resistant methicillin- resistant Staphylococcus aureus VRS8 assessed as reduction in bacterial growth by CLSI based broth microdilution method; assay type: functional
# Cytochrome P450 1A2 = Cytochrome P450 1A2 (Homo sapiens, UniProt P05177); assay: Inhibition of CYP1A2 (unknown origin); assay type: ADME
# Chain of Cytochrome P450 1A2 (P05177 whole entry): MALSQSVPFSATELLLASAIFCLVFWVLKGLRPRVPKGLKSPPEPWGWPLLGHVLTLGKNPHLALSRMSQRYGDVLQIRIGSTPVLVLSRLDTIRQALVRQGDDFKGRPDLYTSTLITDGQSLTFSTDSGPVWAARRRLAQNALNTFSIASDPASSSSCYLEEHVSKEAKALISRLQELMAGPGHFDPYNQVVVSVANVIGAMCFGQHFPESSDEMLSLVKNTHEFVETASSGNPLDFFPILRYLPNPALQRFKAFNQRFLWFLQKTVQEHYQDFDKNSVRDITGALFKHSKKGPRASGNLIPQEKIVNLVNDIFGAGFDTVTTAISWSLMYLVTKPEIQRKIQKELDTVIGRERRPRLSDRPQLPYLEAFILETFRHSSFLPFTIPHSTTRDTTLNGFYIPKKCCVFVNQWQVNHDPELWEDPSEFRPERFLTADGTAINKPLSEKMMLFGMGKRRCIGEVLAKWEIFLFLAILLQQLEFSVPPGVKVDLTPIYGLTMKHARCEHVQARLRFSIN
# DNA gyrase = DNA gyrase (Staphylococcus aureus, UniProt P0A0K8+P20831); assay: Inhibition of Staphylococcus aureus DNA gyrase using relaxed pBR322 as substrate incubated for 30 mins by ethidium bromide staining based gel electrophoresis analysis; assay type: protein-complex assay
# Staphylococcus aureus [23] = assay: Antibacterial activity against MUP resistant (RN4220 + pGO400), methicillin-resistant Staphylococcus aureus NRS107 assessed as reduction in bacterial growth by CLSI based broth microdilution method; assay type: functional
# Cytochrome P450 2C19 = Cytochrome P450 2C19 (Homo sapiens, UniProt P33261); assay: Inhibition of CYP2C19 (unknown origin); assay type: ADME
# Chain of Cytochrome P450 2C19 (P33261 whole entry): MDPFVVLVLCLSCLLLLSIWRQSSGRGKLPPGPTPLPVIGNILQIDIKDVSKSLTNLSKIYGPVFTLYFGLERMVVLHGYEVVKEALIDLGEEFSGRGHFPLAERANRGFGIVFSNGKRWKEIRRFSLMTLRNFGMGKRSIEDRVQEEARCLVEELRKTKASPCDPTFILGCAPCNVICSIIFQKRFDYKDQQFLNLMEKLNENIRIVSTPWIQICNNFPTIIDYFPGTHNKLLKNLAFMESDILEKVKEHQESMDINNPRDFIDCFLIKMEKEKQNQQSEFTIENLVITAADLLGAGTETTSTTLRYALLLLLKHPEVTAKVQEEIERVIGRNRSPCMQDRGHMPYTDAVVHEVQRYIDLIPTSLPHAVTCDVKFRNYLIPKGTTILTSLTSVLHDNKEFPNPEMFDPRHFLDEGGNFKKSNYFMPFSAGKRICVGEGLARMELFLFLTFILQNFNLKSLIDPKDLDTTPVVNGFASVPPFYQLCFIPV
# [24] = target: Voltage-dependent L-type calcium channel subunit alpha-1C (Homo sapiens, UniProt Q13936); assay: Inhibition of Cav1.2 (unknown origin) by patch clamp assay
# Chain of Voltage-dependent L-type calcium channel subunit alpha-1C (Q13936 whole entry): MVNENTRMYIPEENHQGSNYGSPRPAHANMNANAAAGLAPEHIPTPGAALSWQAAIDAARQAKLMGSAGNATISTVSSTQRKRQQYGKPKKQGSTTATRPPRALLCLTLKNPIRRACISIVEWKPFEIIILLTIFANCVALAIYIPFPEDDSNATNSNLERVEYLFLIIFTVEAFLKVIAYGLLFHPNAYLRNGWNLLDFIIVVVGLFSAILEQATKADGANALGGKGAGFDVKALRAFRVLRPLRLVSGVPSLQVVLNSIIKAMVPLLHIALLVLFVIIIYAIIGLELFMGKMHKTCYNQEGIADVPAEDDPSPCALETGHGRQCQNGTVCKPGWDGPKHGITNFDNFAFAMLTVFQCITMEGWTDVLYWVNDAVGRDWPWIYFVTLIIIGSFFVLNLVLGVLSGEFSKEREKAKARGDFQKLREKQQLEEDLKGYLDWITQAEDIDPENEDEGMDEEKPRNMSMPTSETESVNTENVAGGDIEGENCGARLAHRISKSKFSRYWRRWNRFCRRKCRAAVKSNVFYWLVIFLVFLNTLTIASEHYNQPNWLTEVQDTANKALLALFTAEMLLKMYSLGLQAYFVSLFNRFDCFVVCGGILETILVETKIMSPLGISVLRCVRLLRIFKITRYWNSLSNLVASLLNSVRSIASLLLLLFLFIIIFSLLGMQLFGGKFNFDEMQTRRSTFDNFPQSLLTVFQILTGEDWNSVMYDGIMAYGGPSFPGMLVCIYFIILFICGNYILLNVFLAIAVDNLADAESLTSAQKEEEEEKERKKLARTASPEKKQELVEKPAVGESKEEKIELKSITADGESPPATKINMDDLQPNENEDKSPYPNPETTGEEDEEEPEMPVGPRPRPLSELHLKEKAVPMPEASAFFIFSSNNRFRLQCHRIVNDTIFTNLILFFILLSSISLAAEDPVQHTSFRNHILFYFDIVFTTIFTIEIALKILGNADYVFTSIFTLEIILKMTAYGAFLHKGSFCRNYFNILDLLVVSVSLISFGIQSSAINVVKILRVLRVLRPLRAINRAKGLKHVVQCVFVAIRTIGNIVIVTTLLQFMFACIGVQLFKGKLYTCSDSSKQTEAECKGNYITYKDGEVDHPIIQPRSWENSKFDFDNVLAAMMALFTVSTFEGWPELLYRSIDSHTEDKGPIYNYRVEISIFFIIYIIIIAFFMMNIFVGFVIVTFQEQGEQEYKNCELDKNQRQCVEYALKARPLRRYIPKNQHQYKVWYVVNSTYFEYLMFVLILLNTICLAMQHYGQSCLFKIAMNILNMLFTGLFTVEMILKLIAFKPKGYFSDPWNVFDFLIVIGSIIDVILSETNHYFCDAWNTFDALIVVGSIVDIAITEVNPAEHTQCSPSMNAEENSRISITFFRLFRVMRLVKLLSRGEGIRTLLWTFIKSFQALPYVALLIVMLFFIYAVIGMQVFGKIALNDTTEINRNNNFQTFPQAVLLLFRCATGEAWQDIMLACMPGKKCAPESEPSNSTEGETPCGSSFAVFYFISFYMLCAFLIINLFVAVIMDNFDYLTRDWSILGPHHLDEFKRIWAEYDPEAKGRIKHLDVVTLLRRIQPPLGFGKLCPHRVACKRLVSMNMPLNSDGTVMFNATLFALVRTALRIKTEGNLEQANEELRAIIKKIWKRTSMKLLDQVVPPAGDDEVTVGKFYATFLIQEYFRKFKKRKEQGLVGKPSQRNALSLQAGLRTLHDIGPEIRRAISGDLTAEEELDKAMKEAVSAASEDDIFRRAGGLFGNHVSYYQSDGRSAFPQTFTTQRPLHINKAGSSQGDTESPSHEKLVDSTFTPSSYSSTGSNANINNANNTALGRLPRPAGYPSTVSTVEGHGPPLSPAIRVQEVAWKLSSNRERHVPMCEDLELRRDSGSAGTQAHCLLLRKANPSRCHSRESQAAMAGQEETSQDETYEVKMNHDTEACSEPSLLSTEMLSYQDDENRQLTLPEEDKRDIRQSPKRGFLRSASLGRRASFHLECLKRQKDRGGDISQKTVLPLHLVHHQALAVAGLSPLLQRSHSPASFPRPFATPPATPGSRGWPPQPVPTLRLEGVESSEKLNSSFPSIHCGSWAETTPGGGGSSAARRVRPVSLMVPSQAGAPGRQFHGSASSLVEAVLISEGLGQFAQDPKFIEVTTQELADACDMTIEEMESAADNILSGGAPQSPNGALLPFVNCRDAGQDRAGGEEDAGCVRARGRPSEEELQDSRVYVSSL
# Staphylococcus aureus [25] = assay: Antibacterial activity against Staphylococcus aureus clinical isolate assessed as reduction in bacterial growth by CLSI based broth microdilution method; assay type: functional
# Staphylococcus aureus [26] = assay: Antibacterial activity against methicillin-resistant Staphylococcus aureus N315 NRS70 assessed as reduction in bacterial growth by CLSI based broth microdilution method; assay type: functional
# Neisseria gonorrhoeae [27] = assay: Antibacterial activity against wild type Neisseria gonorrhoeae ATCC 700825 assessed as reduction in bacterial growth by agar dilution method; assay type: functional
# Staphylococcus aureus [28] = assay: Antibacterial activity against LZD-resistant, methicillin-resistant Staphylococcus aureus NRS127 assessed as reduction in bacterial growth by CLSI based broth microdilution method; assay type: functional
# Cytochrome P450 2C9 = Cytochrome P450 2C9 (Homo sapiens, UniProt P11712); assay: Inhibition of CYP2C9 (unknown origin); assay type: ADME
# Neisseria gonorrhoeae [29] = assay: Antibacterial activity against wild-type Neisseria gonorrhoeae ATCC 49226 assessed as reduction in bacterial growth by agar dilution method; assay type: functional
# Staphylococcus aureus [30] = assay: Antibacterial activity against AMG-resistant, methicillin-resistant Staphylococcus aureus NRS108 assessed as reduction in bacterial growth by CLSI based broth microdilution method; assay type: functional
# Staphylococcus aureus [31] = assay: Antibacterial activity against AMG- and TET-resistant (Mu50) GyrA (S84L,E409L), GrlA (S80F), methicillin-resistant Staphylococcus aureus NRS1 assessed as reduction in bacterial growth by CLSI based broth microdilution method; assay type: functional
# Topoisomerase IV = Topoisomerase IV (Staphylococcus aureus, UniProt P0C1S7+P0C1U9); assay: Inhibition of Staphylococcus aureus topoisomerase IV using kDNA as substrate incubated for 30 mins by ethidium bromide staining based gel electrophoresis analysis; assay type: protein-complex assay
# Staphylococcus aureus [32] = assay: Antibacterial activity against Staphylococcus aureus VRS1 assessed as reduction in bacterial growth by CLSI based broth microdilution method; assay type: functional
# Cytochrome P450 3A4 = Cytochrome P450 3A4 (Homo sapiens, UniProt P08684); assay: Inhibition of CYP3A4 (unknown origin); assay type: ADME
# TK6 [33] = assay: Genotoxicity in human TK6 cells at 200 uM in absence of S9 fraction by BlueScreen assay; assay type: toxicity, cell-based; settings: tk6, 200 µM
# TK6 [34] = assay: Genotoxicity in human TK6 cells at 200 uM in presence of S9 fraction by BlueScreen assay; assay type: toxicity, cell-based; settings: s9, 200 µM
compound,measurement,setting,value
Cc1nc2c(=O)n(C3CC3)c3c(Cl)c(N4CC5CCCNC5C4)c(F)cc3c2o1 (stereo unspecified),MIC,Streptococcus pneumoniae,4 µg/mL
same,MIC,Escherichia coli,2 µg/mL
same,MIC,Staphylococcus aureus [1],2 µg/mL
same,solubility thermodynamic,[2],1060 µg/mL
same,MIC,Haemophilus influenzae,8 µg/mL
Cc1nc2c(=O)n(C3CC3)c3cc(N4CCC(O)C4)c(F)cc3c2o1 (stereo unspecified),MIC,Streptococcus pneumoniae,64 µg/mL
same,MIC,Escherichia coli,64 µg/mL
same,MIC,Staphylococcus aureus [1],32 µg/mL
same,MIC,Haemophilus influenzae,4 µg/mL
Cc1nc2c(=O)n(C3CC3)c3cc(N4CC5CNCC5C4)c(F)cc3c2o1 (stereo unspecified),MIC,Streptococcus pneumoniae,4 µg/mL
same,MIC,Escherichia coli,4 µg/mL
same,MIC,Staphylococcus aureus [1],2 µg/mL
same,solubility thermodynamic,[2],1200 µg/mL
same,MIC,Haemophilus influenzae,2 µg/mL
Cc1nc2c(=O)n(C3CC3)c3cc(N4CCC(N)C4)c(F)cc3c2o1 (stereo unspecified),MIC,Streptococcus pneumoniae,8 µg/mL
same,MIC,Escherichia coli,1 µg/mL
same,MIC,Staphylococcus aureus [1],2 µg/mL
same,MIC,Haemophilus influenzae,1 µg/mL
Cc1nc2c(=O)n(C3CC3)c3c(Cl)c(N4CCC(CN(C)C)C4)c(F)cc3c2o1 (stereo unspecified),MIC,Streptococcus pneumoniae,2 µg/mL
same,MIC,Escherichia coli,4 µg/mL
same,MIC,Staphylococcus aureus [1],1 µg/mL
same,solubility thermodynamic,[2],1190 µg/mL
same,MIC,Haemophilus influenzae,16 µg/mL
Cc1nc2c(=O)n(C3CC3)c3c(Cl)c(N4CC[C@@H]([C@H](C)N)C4)c(F)cc3c2o1,IC50,[3],28.7 µM
same,MIC,Staphylococcus aureus [4],0.12 µg/mL
same,MIC,Staphylococcus aureus [5],0.12 µg/mL
same,hepatocyte CLint,[6],3 µL/min/1e6 cells
same,MIC,Staphylococcus aureus [7],0.12 µg/mL
same,fraction unbound,[8],0.244
same,MIC,Enterococcus faecium [9],8 µg/mL
same,MIC,Streptococcus pneumoniae,0.015 µg/mL
same,MIC,Staphylococcus aureus [10],0.12 µg/mL
same,MIC,Escherichia coli,0.5 µg/mL
same,IC50,[11],21.5 µM
same,solubility kinetic,[12],> 100 µM
same,MIC,Staphylococcus aureus [13],0.12 µg/mL
same,MIC,[14],0.06 µg/mL
same,IC50,Cytochrome P450 2D6,30 µM
same,Papp,[15],20.7 ×10⁻⁶ cm/s
same,MIC,Enterococcus faecalis,0.12 µg/mL
same,MIC,[16],1 µg/mL
same,MIC,Enterococcus faecium [17],8 µg/mL
same,CC50,[18],32 µg/mL
same,MIC,Streptococcus pyogenes,0.015 µg/mL
same,MIC,Staphylococcus aureus [19],0.12 µg/mL
same,MIC,Staphylococcus aureus [20],0.5 µg/mL
same,efflux ratio,[21],2.2
same,MIC,Staphylococcus aureus [22],0.5 µg/mL
same,IC50,Cytochrome P450 1A2,30 µM
same,MIC,Staphylococcus aureus [1],0.06 µg/mL
same,IC50,DNA gyrase,1.82 µM
same,MIC,Staphylococcus aureus [23],0.12 µg/mL
same,IC50,Cytochrome P450 2C19,30 µM
same,IC50,[24],93.6 µM
same,MIC90,Staphylococcus aureus [25],0.5 µg/mL
same,MIC,Staphylococcus aureus [26],0.06 µg/mL
same,MIC,Neisseria gonorrhoeae [27],0.03 µg/mL
same,MIC,Staphylococcus aureus [28],0.5 µg/mL
same,IC50,Cytochrome P450 2C9,16.4 µM
same,MIC,Neisseria gonorrhoeae [29],0.12 µg/mL
same,MIC,Haemophilus influenzae,1 µg/mL
same,MIC,Staphylococcus aureus [30],0.12 µg/mL
same,MIC,Staphylococcus aureus [31],0.25 µg/mL
same,IC50,Topoisomerase IV,6.1 µM
same,MIC,Staphylococcus aureus [32],0.5 µg/mL
same,IC50,Cytochrome P450 3A4,17.5 µM
same,Activity,TK6 [33],Non-Toxic
same,Activity,TK6 [34],Toxic
Cc1nc2c(=O)n3c4c(c(N5CCC(CN)C5)c(F)cc4c2o1)OC[C@H]3C (stereo partly specified),MIC,Streptococcus pneumoniae,128 µg/mL
same,MIC,Escherichia coli,64 µg/mL
same,MIC,Staphylococcus aureus [1],64 µg/mL
same,MIC,Haemophilus influenzae,128 µg/mL
CNCC1CCN(c2c(F)cc3c4oc(C)nc4c(=O)n(C4CC4)c3c2Cl)C1 (stereo unspecified),MIC,Streptococcus pneumoniae,0.25 µg/mL
same,MIC,Escherichia coli,1 µg/mL
same,MIC,Staphylococcus aureus [1],0.25 µg/mL
same,solubility thermodynamic,[2],1180 µg/mL
same,MIC,Haemophilus influenzae,1 µg/mL
Cc1nc2c(=O)n(C3CC3)c3c(Cl)c(N4CCNCC4)c(F)cc3c2o1,MIC,Streptococcus pneumoniae,4 µg/mL
same,MIC,Escherichia coli,0.5 µg/mL
same,MIC,Staphylococcus aureus [1],0.25 µg/mL
same,solubility thermodynamic,[2],885 µg/mL
same,MIC,Haemophilus influenzae,0.5 µg/mL
Cc1nc2c(=O)n3c4c(c(N5CCC(CN)C5)c(F)cc4c2o1)OC[C@@H]3C (stereo partly specified),MIC,Streptococcus pneumoniae,0.5 µg/mL
same,MIC,Escherichia coli,2 µg/mL
same,MIC,Staphylococcus aureus [1],0.5 µg/mL
same,MIC,Haemophilus influenzae,4 µg/mL
Cc1nc2c(=O)n(C3CC3)c3c(Cl)c(N4CCC(N)CC4)c(F)cc3c2o1,MIC,Streptococcus pneumoniae,0.5 µg/mL
same,MIC,Escherichia coli,0.5 µg/mL
same,MIC,Staphylococcus aureus [1],0.25 µg/mL
same,solubility thermodynamic,[2],922 µg/mL
same,MIC,Haemophilus influenzae,1 µg/mL
